Experimental data from the NIST ThermoML archive (doi:10.1016/j.jct.2011.05.018).
Numbers after ± are expanded uncertainties.

Assay: xn = mol fraction of the nth substance listed
Settings: 101 kPa, Liquid; for viscosity: Capillary tube (Ostwald / Ubbelohde) method; for speed of sound: Pulse-echo method; for mass density: Pycnometric method

COc1ccc(C=O)cc1 [4-methoxybenzaldehyde] + Cc1ccc(O)cc1
Settings | mass density [kg/m3] | speed of sound [m/s] | viscosity [mPa·s]
303.15 K, x1 = 0.0882 | 1032.1 ± 10 | 1492 ± 2.3 | 9.142 ± 0.098
303.15 K, x1 = 0.1788 | 1038.5 ± 10 | 1511.2 ± 2.2 | 8.618 ± 0.089
303.15 K, x1 = 0.2717 | 1044.6 ± 10 | 1532.1 ± 2.1 | 8.086 ± 0.08
303.15 K, x1 = 0.3673 | 1053 ± 11 | 1553.5 ± 2 | 7.524 ± 0.072
303.15 K, x1 = 0.4654 | 1061.2 ± 11 | 1575.9 ± 2 | 7.064 ± 0.065
303.15 K, x1 = 0.5663 | 1068.4 ± 11 | 1599.1 ± 1.9 | 6.543 ± 0.058
303.15 K, x1 = 0.6701 | 1076.7 ± 11 | 1622.7 ± 1.8 | 5.753 ± 0.049
303.15 K, x1 = 0.7769 | 1089.3 ± 11 | 1646.6 ± 1.7 | 5.04 ± 0.041
303.15 K, x1 = 0.8868 | 1105.6 ± 11 | 1671.3 ± 1.7 | 4.265 ± 0.033
303.15 K, x1 = 1 | 1125.2 ± 11 | 1694.3 ± 1.6 | 3.251 ± 0.024
308.15 K, x1 = 0.0882 | 1027.7 ± 10 | 1477 ± 2.3 | 7.824 ± 0.084
308.15 K, x1 = 0.1788 | 1033 ± 10 | 1496.4 ± 2.2 | 7.419 ± 0.077
308.15 K, x1 = 0.2717 | 1038.6 ± 10 | 1516.2 ± 2.1 | 7.002 ± 0.07
308.15 K, x1 = 0.3673 | 1045.9 ± 10 | 1536.6 ± 2 | 6.568 ± 0.063
308.15 K, x1 = 0.4654 | 1053 ± 11 | 1558 ± 2 | 6.218 ± 0.058
308.15 K, x1 = 0.5663 | 1060.5 ± 11 | 1580.1 ± 1.9 | 5.826 ± 0.052
308.15 K, x1 = 0.6701 | 1066.8 ± 11 | 1602.5 ± 1.8 | 5.158 ± 0.044
308.15 K, x1 = 0.7769 | 1077.5 ± 11 | 1625.2 ± 1.7 | 4.604 ± 0.038
308.15 K, x1 = 0.8868 | 1093 ± 11 | 1648.6 ± 1.7 | 3.965 ± 0.031
308.15 K, x1 = 1 | 1111.6 ± 11 | 1670.7 ± 1.6 | 3.131 ± 0.023
313.15 K, x1 = 0.0882 | 1024.2 ± 10 | 1462.2 ± 2.3 | 6.529 ± 0.071
313.15 K, x1 = 0.1788 | 1029.7 ± 10 | 1479.1 ± 2.2 | 6.242 ± 0.065
313.15 K, x1 = 0.2717 | 1035.9 ± 10 | 1496.4 ± 2.1 | 5.913 ± 0.06
313.15 K, x1 = 0.3673 | 1044 ± 10 | 1514.2 ± 2 | 5.582 ± 0.054
313.15 K, x1 = 0.4654 | 1050.3 ± 10 | 1533 ± 2 | 5.339 ± 0.05
313.15 K, x1 = 0.5663 | 1057.6 ± 11 | 1552.4 ± 1.9 | 5.07 ± 0.046
313.15 K, x1 = 0.6701 | 1065.6 ± 11 | 1572 ± 1.8 | 4.541 ± 0.039
313.15 K, x1 = 0.7769 | 1076.5 ± 11 | 1591.7 ± 1.7 | 4.099 ± 0.034
313.15 K, x1 = 0.8868 | 1091.7 ± 11 | 1612 ± 1.7 | 3.609 ± 0.028
313.15 K, x1 = 1 | 1109.5 ± 11 | 1631.3 ± 1.6 | 2.961 ± 0.022
318.15 K, x1 = 0.0882 | 1020 ± 10 | 1445.1 ± 2.3 | 5.316 ± 0.058
318.15 K, x1 = 0.1788 | 1027.2 ± 10 | 1456.5 ± 2.2 | 5.115 ± 0.054
318.15 K, x1 = 0.2717 | 1033.9 ± 10 | 1467.9 ± 2.1 | 4.87 ± 0.05
318.15 K, x1 = 0.3673 | 1042.1 ± 10 | 1479.6 ± 2 | 4.616 ± 0.045
318.15 K, x1 = 0.4654 | 1048.9 ± 10 | 1492.3 ± 2 | 4.431 ± 0.042
318.15 K, x1 = 0.5663 | 1055.4 ± 11 | 1505.4 ± 1.9 | 4.259 ± 0.039
318.15 K, x1 = 0.6701 | 1063 ± 11 | 1518.5 ± 1.8 | 3.861 ± 0.034
318.15 K, x1 = 0.7769 | 1073.7 ± 11 | 1531.2 ± 1.7 | 3.523 ± 0.029
318.15 K, x1 = 0.8868 | 1088.9 ± 11 | 1544.7 ± 1.7 | 3.163 ± 0.025
318.15 K, x1 = 1 | 1104.7 ± 11 | 1557 ± 1.6 | 2.682 ± 0.02
